The values below come from patent US20250019341A1, “COMPOUNDS AND METHOD OF USE THEREOF FOR TREATING BACTERIAL DISEASES” (PEKING UNIVERSITY, priority 2021, published 2025).

Where two headings read alike, the source gives them in different places.

In assay [1] the test system is Pst DC3000. The assay is described as follows: Growth curve of Pst DC3000 in KB medium. In kind it is cell-based, P. syringae. The following applies: 150 μM.
Assay [2] deals with Pst T1 effector AvrPto secretion. The assay is described as follows: AvrPto secretion of Pst T1 (immunoblot). In kind it is cell-based. As to conditions: 24 h incubation, versus untreated bacteria. In general terms: Immunoblotting shows a protein as a band on a membrane.
In assay [3] the test system is Xcc8004 effector AvrAc secretion. The experiment in a line: AvrAC protein accumulation and secretion of Xcc8004 (immunoblot). In kind it is cell-based. As to conditions: 24 h incubation, versus untreated bacteria. The procedure:
To determine AvrAC protein accumulation and secretion, Xcc8004 strain expressing HA-tagged AvrAC was cultivated at 28° C. in NYG rich medium (3 g/L yeast extract, 5 g/L peptone, 20 g/L glycerol, pH 7.0). […] Total and supernatants protein were analyzed by immunoblot by indicated antibodies.

For assay [4], the system named is S. typhimurium effector SopF secretion. The assay is described as follows: SopF protein accumulation and secretion of Salmonella Typhimurium (immunoblot). As to conditions: 24 h incubation, versus untreated bacteria. In kind it is cell-based, Salmonella Typhimurium 14028S. How it is done:
To determine SopF protein accumulation and secretion, Salmonella Typhimurium 14028S expressing His-tagged SopF was cultivated at 37° C. in LB medium and then subcultured (1:100) in fresh 30 mL LB medium with erucamide or solvent to an OD600 of 0.2. After induction with 0.5 mM IPTG, whole cells and culture supernatants were separated by centrifugation at 5000 RPM for 10 min. The pellet was resuspended by PBS as cytoplasmic protein sample. The supernatants were filtered (0.22 μm pore-size) and then precipitated by adding trichloroacetic acid at a final concentration of 10% v/v, followed by incubation at 4° C. overnight and centrifugation (20000 g, 4° C., 30 min). The pellet was washed twice by cold acetone and analyzed by immunoblot using anti-His antibodies. For control, anti-DnaK antibodies were used.

For assay [5], the system named is Pst DC3000 hrcQ mutant. The assay is described as follows: Bacterial growth assay on N. benthamiana leaves. In kind it is in vivo. The following applies: 150 μM.
Assay [6] relates to P. actinidiae. The experiment in a line: Bacterial canker of kiwifruit, leaf inoculation. Format: in vivo. The following applies: 1 mM, sprayed with bacteria on leaves.
The subject of assay [7] is Xanthomonas oryzae pv. oryzae (Xoo) isolate P6. In kind it is in vivo, rice. The following applies: 1 mM, Xoo P6, leaf clipping, 12 days after inoculation, versus solvent.
In assay [8] the test system is R. solanacearum. Format: in vivo, tomato. The following applies: 1 mM, soil drenching, versus solvent.
In assay [9] the test system is Pst DC3000 TTSS injectisome (Hrp pilus) assembly. In kind it is cell-based, P. syringae. As to conditions: 0.2 mM, TEM.
Assay [10] deals with Pst DC3000 injectisome structural proteins (HrpA, HrcQb). The experiment in a line: Injectisome structural proteins in cellular and membrane fractions (quantitative proteomics, immunoblot). In kind it is cell-based, P. syringae. The following applies: 0.2 mM. The procedure:
To isolate the membrane fraction, bacterial cells were harvested, washed with 10 mM Tris-HCl at pH 8.0, centrifuged and the supernatants were carefully discarded. The cell pellets were then resuspended in spheroplast buffer (20 mM Tris pH 8.0, 20% sucrose, 1 mM Na-EDTA), incubated for 10 min and centrifuged. The pellets were then resuspended in ice hypotonic solution (sterile water) and the sample were incubated for 10 min on ice. After centrifugation, the resulting pellets were resuspended in 10 mM Tris-HCl at pH 8.0 and sonicated. After centrifugation, the supernatants were carefully transferred to new tubes and centrifuged again for 40 min. The pellets were washed by sterile water and centrifuged for another 40 min. The pellets were resuspended in water as membrane proteins.

The test system of assay [11] is P. syringae TTSS secretion (AvrPto, Pst DC3000). As to conditions: for inhibition of AvrPto secretion in Pst DC3000: supernatant protein, indicated concentrations or dilutions; for inhibition of AvrPto secretion in Pst DC3000 / abundance of AvrPto in total protein (bacteria): immunoblot; for abundance of AvrPto in total protein (bacteria): total / intracellular protein.

The subject of assay [12] is Pst DC3000 TTSS gene transcription (avrPto, hrpL).

`CCCCCCCC/C=C\CCCCCCCCCCCC(N)=O` (single isomer, unassigned) [Compound T3SI-1, erucamide]: the “growth of Pst DC3000” value in assay [1] (listed as Erucamide) is listed as “does not affect”; in assay [1] (listed as erucamide), “no effect”. Besides, the “secretion of AvrPto in Pst T1” value in [2] (listed as Erucamide) was “inhibits”; in assay [2] (listed as erucamide), “significantly lower”. In addition, the “secretion of AvrAc in Xcc8004” value in assay [3] (listed as Erucamide) is on record as “inhibits”; in assay [3] (listed as erucamide) it was “significantly lower”. In addition, the “secretion of SopF in S. typhimurium” value in assay [4] (listed as Erucamide) is “inhibits”; in [4] (listed as erucamide), “significantly lower”. The “Pst DC3000 hrcQ growth on N. benthamiana” value in assay [5] is recorded as “inhibited”. Further, the “bacteria population in treated plants, less than in untreated plants” value in assay [5] (N. benthamiana leaves, 3 days after inoculation) came to 5 fold. Further, the entries for the “disease symptoms caused by P. actinidiae on kiwifruit leaves” value in [6] (listed as Erucamide) and in assay [6] (listed as erucamide) were “decreased the disease symptoms” and “significantly decrease the disease symptoms”, respectively. The “rice bacterial blight lesion length” value in assay [7] (listed as Erucamide) is given as “protective effects”; in assay [7] (listed as erucamide) it was “significantly shorter”. Also, the “disease symptoms / virulence of R. solanacearum on tomato” value in [8] (listed as Erucamide) is “decreased the virulence”; in [8] (listed as erucamide) it was “significantly decreased disease symptoms”. Further, in assay [9], the flagella production result is on record as “slightly blocked”. For the same molecule, the “Hrp pilus (TTSS injectisome) assembly” value in [9] (listed as Erucamide) was “inhibited”; in assay [9] (listed as erucamide) it was “significantly inhibited”. Further, the “bacteria that had Hrp pilus” value in [9] (erucamide treatment group) stood at 3.3%. For the same molecule, the “bacteria that had flagella” value in assay [9] (erucamide treatment group) is 56.7%. For the same molecule, the “HrpA and HrcQb accumulation in membrane” value in assay [10] (immunoblot) is given as “inhibited”. In addition, the “levels of HrpA and HrcQb in cellular protein” value in assay [10] (immunoblot) is recorded as “did not change”. Besides, the “amount of injectisome structure proteins in total protein” value in assay [10] (quantitative proteomics) is listed as “not altered”. In [10] (quantitative proteomics), the “injectisome structure protein accumulation in membrane” value is given as “reduced”. Moreover, the “concentration at which inhibition of AvrPto secretion was observed” value in assay [11] (Pst DC3000) worked out at 6 µM. Also, the “inhibition of AvrPto secretion in Pst DC3000” value (“inhibition … in Pst DC3000” below) is listed as “effectively inhibited” in assay [11], “inhibits” in assay [11] (listed as Erucamide), “gradually decreased with increasing concentration” in assay [11] (listed as erucamide) and “high activity” in assay [11] (listed as fraction 9). Further, in [12] (Pst DC3000 reporter genes, luciferase activity), the “transcription activity of TTSS genes avrPto and hrpL and house-keeping gene trp” value is reported as “does not inhibit”.
With `CCCCCCCC/C=C/CCCCCCCCCCCC(N)=O` [Compound T3SI-2, (E)-13-docosenamide], the “inhibition … in Pst DC3000” value in assay [11] was “effectively inhibited”.
In the case of `CCCCCCCC/C=C\CCCCCCCC(N)=O` [Compound T3SI-5], the “abundance of AvrPto in total protein (bacteria)” value (from here on “abundance of AvrPto”) in assay [11] was “decrease”.
Take `CCCCCC/C=C\CCCCCCCC(N)=O` [Compound T3SI-6]: the “abundance of AvrPto” value in [11] is recorded as “decrease”.
Consider `CCCCCCCCCCCCCCCCCCCCCC(N)=O` [Compound T3SI-7], for which the “inhibition … in Pst DC3000” value in assay [11] is listed as “effectively inhibited”.
Turning to `CCCCCCCCCCCCCCCCCC(N)=O` [Compound T3SI-8], in assay [11], the “inhibition … in Pst DC3000” value is “effectively inhibited”.
On to `CCCCCCCCCCCCCCCC(N)=O` [Compound T3SI-9], for which the “inhibition … in Pst DC3000” value in assay [11] is “effectively inhibited”.
Turning to `C=CCCCCCCCCCCCC(N)=O` [Compound T3SI-12, 13-Tetradecenoic acid amide], in assay [11], the “inhibition … in Pst DC3000” value is “effectively inhibited”.
As to `CCCCCCCC/C=C\CCCCCCCCCCCCNC(N)=O` [Compound T3SI-14, N-(13Z)-13-Docosen-1-ylurea], the “inhibition … in Pst DC3000” value in assay [11] is recorded as “effectively inhibited”.
Same read-out and setting: in the case of `CCCCCCCC/C=C\CCCCCCCCCCCC(=O)NCC` [Compound T3SI-16, N-ethyl-13(Z)-Docosenamide] it was “effectively inhibited”.
In the case of `CCCCCCCC/C=C\CCCCCCCCCCCC(=O)NCCO` [Compound T3SI-18, N-(2-hydroxyethyl)-13(Z)-Docosenamide], the “inhibition … in Pst DC3000” value in assay [11] is given as “effectively inhibited”.
With `CCCCCCCCCCCCCCCC(=O)NCCO` [Compound T3SI-19, N-(2-hydroxyethyl)-Hexadecanamide], in assay [11], the “inhibition … in Pst DC3000” value is “effectively inhibited”.
With `CCCCCCCCc1ccccc1CCCCCCCCCCCC(N)=O` [Compound T3SI-21, 12-(2-octylphenyl)dodecanamide], in assay [11], the “abundance of AvrPto” value is “decrease”.
Take `CCCCCCCCc1ccc(CCCCCCCCCCCC(N)=O)cc1` [Compound T3SI-22, 12-(4-octylphenyl)dodecanamide]: the “abundance of AvrPto” value in assay [11] is “decrease”.
On to `CCCCCCCC/C=C\CCCCCCCCCCCC(=O)NO` [Compound T3SI-24, (Z)—N-hydroxydocos-13-enamide], for which, in assay [11], the “abundance of AvrPto” value is recorded as “decrease”.
As to `CCCCCCCCCCCCCC(N)=O` [Compound T3SI-25], in assay [11], the “inhibition … in Pst DC3000” value was “effectively inhibited”.
In the case of `CCCCCCCCCCCC(N)=O` [Compound T3SI-26], the “inhibition … in Pst DC3000” value in [11] is “effectively inhibited”.
As to `CCCCCC/C=C\CCCC(N)=O` [Compound T3SI-29], the “abundance of AvrPto” value in assay [11] is listed as “decrease”.
On to `C[S+]([O-])CCCCN=C=S` (stereo not shown) [SFN, reference compound], for which, in assay [12], the “P. syringae TTSS gene expression” value is “preferentially inhibits”.
